According to patent publication US8808713B2, “Compositions for pulmonary delivery of long-acting β2 adrenergic receptor agonists and associated methods and systems” (Pearl Thereapeutics, Inc., priority 2009, dated 2014):
Blank lines part the entries; values can stand above or below the compound they belong to.

Legend:
[1] = Visual observation of suspension quality / co-suspension in glass vials (settling, centrifugation); format: physicochemical
[2] = test system: patients with mild to moderate COPD; experiment: Multi-center clinical trial, single-dose crossover: spirometry (FEV1) and safety; conditions: 18 μg via Spiriva Handihaler

Visual observation: sedimentation of crystalline FF ([1]; glass vials, HFA 134a, left to settle 24 h): sedimented quickly
Compound: COc1ccc(CC(C)NCC(O)c2ccc(O)c(NC=O)c2)cc1.O=C(O)/C=C/C(=O)O (racemic) [FF, (±)-2-hydroxy-5-[(1RS)-1-hydroxy-2-[[(1RS)-2-(4-methoxyphenyl)-1-methylethyl]-amino]ethyl]formanilide fumarate]

Compound: OCc1cc(C(O)CNCCCCCCOCCCCc2ccccc2)ccc1O (stereo not drawn) [SX, 4-hydroxy-α1-[[[6-(4-phenylbutoxy)hexyl]amino]methyl]-1,3-benzenedimethanol, 1-hydroxy-2-naphthalenecarboxylate]
Visual observation: sedimentation of SX crystals ([1]; glass vials heated up to 30° C.-35° C. in a water bath): sedimented rapidly

Compound: C[N+]1(C)[C@@H]2C[C@@H](OC(=O)C(O)(c3cccs3)c3cccs3)C[C@H]1[C@@H]1O[C@@H]12 [tiotropium]
Mean time to ≧10% improvement in FEV1 [2]: approximately 3 hours
